What was measured:
[1] = tested on: HUVECs; assay: […] migration assay; type: cell-based, human; conditions: TRANSWELL
Method: Specificity of the inhibitory effect of DUF2C5 was determined by EC migration induced by different stimuli in a […] migration assay. HUVECs migrated toward 2.2 nmol/L VEGF, 50 ng/mL basic fibroblast growth factor (bFGF), or 1 μmol/L sphingosine-1-phosphate (S1P) were visualized by hematoxylin staining, and number of migrated cells were counted. Data are expressed as means±SEM. N=3. *P<0.05 (one-way analysis of variance and Bonferroni multiple comparisons test).
(§1) Collagen invasion assay was performed as previously described (Kang, et al. (2011) J. Biol. Chem. 286:42017-26). In vitro capillary network formation on […] (BD Biosciences, San Jose, Calif.) and scratch wound healing assay were performed as previously described (Humtsoe, et al. (2010) Mol. Cell Biol. 30:1593-1606). Fibrin gel sprouting assay was performed as described by Nakatsu & Hughes ((2008) Methods Enzymol. 443:65-82). VEGF (2.2 nmol/L) stimulation was used for all in vitro angiogenesis assays. Transwell migration assay was performed as described by Kaplan, et al. ((2011) Free Radical Res. 45:1124-35) using VEGF (4.4 nmol/L), sphingosine-1-phosphate (S1P) (1 μmol/L), or basic fibroblast growth factor (bFGF) (50 ng/mL) in the presence or absence of kinesin-derived angiogenesis inhibitor (DUF2C5; residues 1238-1260 of KIF13B) at varying concentrations.
EC migration in response to DUF2C5 was determined using the scratch wound healing assay. […] The […] migration assay was also employed to determine whether the inhibitory effect of DUF2C5 on EC migration was specific to VEGF. HUVECs were placed in the […] chamber with or without DUF2C5 or CT23. […] PBS and CT23 had no effect on EC migration induced by all stimuli.

[2] = tested on: HUVECs; assay: fibrin gel sprouting assay (3-dimensional culture of HUVECs on beads); type: cell-based, human; conditions: 1 μmol/L, VEGF-induced EC sprouting
Method: as §1
Changes in VEGF-induced network formation assay were assessed in […] plugs. […] VEGF-induced EC sprouting was also determined by 3-dimensional culture of HUVECs on beads (Nakatsu & Hughes (2008) Methods Enzymol. 443:65-82).

[3] = target: VEGFR2 (Homo sapiens, UniProt P35968); assay: pull-down binding assay with endogenous VEGFR2 from HUVEC lysates; design: endogenous in cells; host or cells: HUVEC; conditions: HUVEC lysate, anti-VEGFR2 western blot
VEGFR2, sequence (P35968 20-1356): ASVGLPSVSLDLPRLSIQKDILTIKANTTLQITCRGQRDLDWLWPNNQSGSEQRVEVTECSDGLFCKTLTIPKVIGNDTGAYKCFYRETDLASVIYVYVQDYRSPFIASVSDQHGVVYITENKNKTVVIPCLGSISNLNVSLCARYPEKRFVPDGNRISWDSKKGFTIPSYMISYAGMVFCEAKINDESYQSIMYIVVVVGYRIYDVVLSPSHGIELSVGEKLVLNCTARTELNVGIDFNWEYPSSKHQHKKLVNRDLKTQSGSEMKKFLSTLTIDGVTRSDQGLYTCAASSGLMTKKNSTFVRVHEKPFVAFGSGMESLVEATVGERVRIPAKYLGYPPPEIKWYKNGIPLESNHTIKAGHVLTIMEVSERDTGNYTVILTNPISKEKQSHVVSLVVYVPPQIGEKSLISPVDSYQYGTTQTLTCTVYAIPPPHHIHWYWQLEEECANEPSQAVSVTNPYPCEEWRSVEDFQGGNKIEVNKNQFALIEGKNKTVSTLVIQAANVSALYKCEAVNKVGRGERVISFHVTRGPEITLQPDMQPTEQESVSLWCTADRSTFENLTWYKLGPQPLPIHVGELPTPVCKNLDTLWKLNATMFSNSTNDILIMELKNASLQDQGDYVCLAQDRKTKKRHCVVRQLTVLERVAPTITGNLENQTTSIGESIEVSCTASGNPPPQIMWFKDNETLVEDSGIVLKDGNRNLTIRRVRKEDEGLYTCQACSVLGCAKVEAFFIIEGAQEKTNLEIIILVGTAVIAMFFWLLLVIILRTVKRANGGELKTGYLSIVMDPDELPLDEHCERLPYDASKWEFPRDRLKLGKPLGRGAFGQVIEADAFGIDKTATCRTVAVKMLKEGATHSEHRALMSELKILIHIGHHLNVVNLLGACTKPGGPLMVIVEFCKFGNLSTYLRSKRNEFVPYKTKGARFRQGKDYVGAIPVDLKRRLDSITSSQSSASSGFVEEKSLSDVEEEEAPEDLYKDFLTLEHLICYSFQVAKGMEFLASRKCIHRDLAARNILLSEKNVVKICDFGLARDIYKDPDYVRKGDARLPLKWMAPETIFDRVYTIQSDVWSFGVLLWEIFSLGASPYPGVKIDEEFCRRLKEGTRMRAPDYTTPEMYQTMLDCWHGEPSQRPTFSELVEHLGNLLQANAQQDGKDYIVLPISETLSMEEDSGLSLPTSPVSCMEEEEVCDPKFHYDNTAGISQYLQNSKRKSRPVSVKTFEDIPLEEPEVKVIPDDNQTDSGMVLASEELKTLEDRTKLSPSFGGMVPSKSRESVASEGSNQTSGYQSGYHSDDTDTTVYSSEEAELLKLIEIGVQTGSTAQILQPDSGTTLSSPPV
Description: Truncated mutants of KIF13B were expressed in BL21 (DE3) or Rosetta-gami and purified as previously described (Yamada, et al. (2014) J. Cell Sci. 127:4518-30; Yamada, et al. (2007) Biochemistry 46:10039-45).
Using recombinant proteins, the binding sites on KIF13B mediating the interaction with VEGFR2 were identified. KIF13B has a motor, forkhead-associated, membrane-associated guanylate kinase-binding stalk, 2 domains of unknown function (DUFs) (DUF3694), and a proline-rich and cytoskeleton-associated protein glycine-rich domain. The DUFs were identified from amino acid sequence similarity on the Pfam database. It has been previously shown that both domains of DUF3694 directly bind recombinant VEGFR2 in vitro (Yamada, et al. (2007) Biochemistry 46:10039-45). To define the specific peptide sequence inhibiting VEGFR2 trafficking, further analysis of the second DUF3694 domain (DUF2, residues 1112-1281 of KIF13B) was carried out. This was based on stability of this domain and a sequence distinct from binding sites for other cargoes of KIF13B (Horiguchi, et al. (2006) J. Cell Biol. 174:425-436; Hanada, et al. (2000) J. Biol. Chem. 275:28774-2878). DUF2 was divided into 3 parts, DUF2A (residues […]), DUF2B (residues 1168-1216), and DUF2C (residues 1217-1281) and each part was expressed as a recombinant protein in bacteria. VEGFR2 was abundantly expressed in HUVECs; thus, cell lysate from HUVECs was incubated with these recombinant proteins on beads, and VEGFR2 binding was determined using the anti-VEGFR2 antibody.
To identify the minimum binding site on VEGFR2, DUF2C was further truncated (DUF2C1-9) (FIG. 1). […] Stability of the C5 peptide was attributed to the 4-6 C-terminal residues. Accordingly, replacing these C-terminal residues with another a peptide, one or more post-translational modifications, one or more non-natural amino acid residues, a macromolecule such as PEG, or a combination thereof, is expected to stabilize the KAI peptide.
Initially, peptide interaction with VEGFR2 was confirmed using the pull-down assay.
To further define the KIF13B residues involved in binding to VEGFR2, truncations of the DUF2C5 peptide were tested for binding to VEGFR2 (Table 3) and compared to binding of DUF2C5 and peptides flanking this region (FIG. 1).

[4] = tested on: HUVECs; assay: uptake of biotin-tagged peptides by HUVECs, flow cytometry; type: cell-based, human; conditions: biotin-tagged peptide, 2 hours incubation
Method: Next, EC uptake of the peptides by HUVECs was determined. Both DUF2C5 and CT23 were designed to have high pI (pH at which the molecules carry no net charge), pI 12.1 and 10.4, respectively; thus, in neutral pH, both peptides have a positive charge important for cellular uptake (Jones, et al. (2005) Br. J. Pharmacol. 145:1093-1102). DUF2C5 and CT23 were synthesized with a biotin-tag and visualized using streptavidin-[…].

“CT23: negative control, C-terminal 23-amino acid peptide, residues 1650 to 1672 of KIF13B (RVRASELRSFSRMLAGDPGCSPG)” was tested, and the “bFGF-induced EC migration” value ([1]; stimulus 50 ng/mL bFGF) was “had no effect”, the “S1P-induced EC migration” value ([1]; stimulus 1 μmol/L S1P) was “had no effect” and the “VEGF-induced EC migration” value ([1]; stimulus VEGF) was “had no effect”. For the same substance, the “number of branching point structures per bead” value [2] was 4-6 branches, the “number of sprouts per bead” value [2] was 13-16 sprouts and the VEGFR2 binding [3] was “did not interact with VEGFR2”. For the same substance, the “uptake of the peptides by HUVECs” value [4] was “shown to internalize”.

From patent publication US11299524B2, “KIF13B-derived peptide and method of inhibiting angiogenesis” (THE BOARD OF TRUSTEES OF THE UNIVERSITY OF ILLINOIS, priority 2016, dated 2022)
